Our source for the Ki values is ChEMBL document CHEMBL3804765, “One-pot synthesis and sigma receptor binding studies of novel spirocyclic-2,6-diketopiperazine derivatives” (Bioorg Med Chem Lett, 2016).

Molecules are shown by their SMILES.

Test [1] concerns the target Sigma non-opioid intracellular receptor 1 (Cavia porcellus, UniProt Q60492). In words: Displacement of [3H](+)-pentazocine from Sigma1 receptor in Dunkin Hartley guinea pig brain membrane after 120 mins by liquid scintillation counting analysis. (In a radioligand displacement assay an active substance lowers the binding of a labelled ligand.)
The nature of test [2]: Displacement of [3H]-DTG from Sigma2 receptor in Sprague-Dawley rat liver membrane after 150 mins by liquid scintillation counting analysis in presence of sigma1 blocker (+)-pentazocine. It is filed as cell membranes.
A short description of test [3]: Displacement of [3H]-DTG from Sigma2 receptor in rat brain by liquid scintillation counting analysis in presence of sigma1 blocker (+)-pentazocine. The class given is tissue-based.
A short description of test [4]: Displacement of [3H]-DTG from Sigma2 receptor in Sprague-Dawley rat liver membrane after 150 mins by liquid scintillation counting analysis in presence of sigma1 blocker AC915. The class given is cell membranes.

Sequence of Sigma non-opioid intracellular receptor 1 (Q60492 whole entry): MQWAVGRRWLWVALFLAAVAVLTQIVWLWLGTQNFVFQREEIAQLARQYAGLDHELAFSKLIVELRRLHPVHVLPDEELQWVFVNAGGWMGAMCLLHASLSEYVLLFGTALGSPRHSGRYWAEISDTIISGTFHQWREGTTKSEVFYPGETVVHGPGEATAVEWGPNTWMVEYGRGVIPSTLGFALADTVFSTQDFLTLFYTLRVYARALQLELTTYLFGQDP

What is called Ki is the equilibrium dissociation constant of an inhibitor or competing ligand from its target. As to `Cc1ccc(C(=O)N2CC(=O)N(C3CCCCC3)C(=O)C23CCCC3)cc1`, the values for the inhibition constant Ki in test [1] and in test [2] were 189 nM and 134 nM, respectively.

Take `Cc1ccc(C(=O)N2CC(=O)N(C3CCCCC3)C(=O)C23CCN(Cc2ccccc2)CC3)cc1`: the results for the inhibitory constant (Ki) in test [1] and in test [2] were 11.1 nM and 134 nM, respectively. The matching figures for `COc1ccc(C(=O)N2CC(=O)N(C3CCCCC3)C(=O)C23CCC(C(C)(C)C)CC3)cc1` (stereo unspecified): 9360 nM and above 10000 nM. For the molecule `O=C1CN(C(=O)c2ccccc2)C2(CCN(Cc3ccccc3)CC2)C(=O)N1C1CCCCC1`, the Ki in test [1] amounted to 7.2 nM; in test [2], 248 nM. In the case of `Cc1ccccc1NC(=N)Nc1ccccc1C` [DITOLYLGUANIDINE], the inhibition constant (Ki) in test [2] worked out at 59.1 nM. Turning to `O=C(CCCN1CCC(O)(c2ccc(Cl)cc2)CC1)c1ccc(F)cc1` [HALOPERIDOL], the Ki in test [2] was 54.5 nM. `c1ccc(CN2CCC3(CC2)N=Nc2ccccc2N3)cc1`: in test [3], the Ki amounted to 4220 nM. `COc1ccc(C(=O)N2CC(=O)N(C3CCCCC3)C(=O)C23CCCC3)cc1`: the Ki amounted to 429 nM in test [1] and 98 nM in test [2]. With `COc1ccc(C(=O)N2CC(=O)N(C3CCCCC3)C(=O)C23CCN(Cc2ccccc2)CC3)cc1`, the inhibition constant Ki is 5.9 nM in test [1] and 563 nM in test [2]. Take `COc1ccc(C(=O)N2CC(=O)N(C3CCCCC3)C(=O)C23CCCCC3)cc1`: the inhibitory constant (Ki) came to 1370 nM in test [1] and 5380 nM in test [2]. The matching figures for `COc1ccc(C(=O)N2CC(=O)N(C3CCCCC3)C(=O)C23CCCCC3)c(OC)c1`: 968 nM and 3170 nM.

For `O=C1CN(C(=O)c2ccccc2)C2(CCCC2)C(=O)N1C1CCCCC1`, the inhibition constant Ki in test [1] came out at 79.8 nM; in test [2], 118 nM. `Cc1ccc(C(=O)N2CC(=O)N(C3CCCCC3)C(=O)C23CCCCC3)cc1`: the inhibitory constant (Ki) in test [1] was 399 nM; in test [2] it was 2190 nM. With `CC(C)=CCN1CC[C@]2(C)c3cc(O)ccc3C[C@H]1[C@H]2C` [(+)-PENTAZOCINE], the inhibition constant (Ki) in test [4] came out at 1820 nM. As to `CC(C)(C)C1CCC2(CC1)C(=O)N(C1CCCCC1)C(=O)CN2C(=O)c1ccccc1` (stereo unspecified), the results for the Ki in test [1] and in test [2] were 7900 nM and above 10000 nM, respectively.
